± gives the expanded uncertainty stated by the source.
Details: Crystal; DTA

## NC(=O)N1c2ccccc2C=Cc2ccccc21 [carbamazepine]
  Normal melting temperature: 193.00 ± 1 °C

Source: the NIST ThermoML archive (doi:10.1021/je8002157)
